Earlier results in patent US20260200930A1, “PRODRUGS OF TEMOZOLOMIDE TO FACILITATE DELIVERY INTO BRAIN TUMORS” (H. LEE MOFFITT CANCER CENTER AND RESEARCH INSTITUTE, INC., priority 2022, published 2026).

Experiments:
[1] = oral chemotherapy; % of the highest plasma concentration

solubility in water: insoluble in water
brain concentration relative to highest plasma concentration that can safely be obtained [1]: about 40%
Structure (SMILES): Cn1nnc2c(C(N)=O)ncn2c1=O [TMZ, temozolomide]
